Measurements from patent US6608082B1, “Treatment of erectile dysfunction using isoquinoline compound melanocortin receptor ligands” (Lion Bioscience AG, priority 1998, dated 2003).

Target: T1, MCR-1 (Homo sapiens, UniProt Q01726)
T1 construct: expressed in transfected cells; host or cells: HEK 293
Test: Melanocortin receptor binding assay, competition with 125I-HP 467, HEK 293 cells expressing hMCR-1
Details: displacement of 125I-HP 467 at 10 μM isoquinoline compound
Procedure: All cell culture media and reagents were obtained from GibcoBRL (Gaithersburg Md.), except for COSMIC CALF SERUM (HyClone; Logan Utah).
Cells were suspended in PBS, 10% COSMIC CALF SERUM and 1 mM CaCl2. Cell suspensions were prepared at a density of 2×10^4 cells/ml for HEK 293 cells expressing hMCR-3, hMCR-4 or hMCR-5, and 1×10^5 cells/ml for HEK 293 cells expressing hMCR-1. Suspensions were placed in a water bath and allowed to warm to 37° C. for 1 hr.
Binding assays were performed in a total volume of 250 μl for HEK 293 cells. […] To each tube was added 4×10^3 HEK 293 cells expressing hMCR-3, hMCR-4 or hMCR-5, or 2×10^4 cells expressing hMCR-1. Assays were incubated for 2.5 hr at 37° C.
GF/B filter plates were prepared by soaking for at least one hour in 5 mg/ml BSA and 10 mM CaCl2. Assays were filtered using a Brandel 96-well cell harvester (Brandel Inc.; Gaithersburg, Md.). The filters were washed four times with cold 50 mM Tris, pH 7.4, the filter plates were dehydrated for 2 hr and 35 μl of MICROSCINT was added to each well. Filter plates were counted using a Packard Topcount (Packard Instrument Co.) and data analyzed using GraphPad PRISM v2.0 (GraphPad Software Inc.; San Diego Calif.) and Microsoft EXCEL v5.0a (Microsoft Corp.; Redmond Wash.).
To assay isoquinoline compounds, binding assays were performed in duplicate in a 96 well format. […] A 0.2 ml aliquot of suspended cells was added to each well to give the cell numbers indicate above, and the cells were incubated at 37° C. for 2.5 hr. Cells were harvested on GF/B filter plates as described above and counted.

T1 sequence (Q01726 whole entry): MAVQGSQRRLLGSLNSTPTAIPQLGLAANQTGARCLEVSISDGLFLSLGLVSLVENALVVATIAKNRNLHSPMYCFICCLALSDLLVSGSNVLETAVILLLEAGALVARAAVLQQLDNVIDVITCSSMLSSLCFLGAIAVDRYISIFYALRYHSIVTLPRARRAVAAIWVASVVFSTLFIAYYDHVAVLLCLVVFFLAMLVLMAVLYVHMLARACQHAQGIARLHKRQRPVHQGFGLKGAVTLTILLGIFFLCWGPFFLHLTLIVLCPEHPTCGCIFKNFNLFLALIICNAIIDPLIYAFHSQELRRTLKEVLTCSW

## NCCN1Cc2ccccc2C(CNC2CCCCC2)C1c1ccccc1F (centres unmarked) [TRG 2405-16]
First of duplicate
  % Disp. MC-1 10 μM: 26.8%
Second of duplicate
  % Disp. MC-1 10 μM: 40.3%

## NCCN1Cc2ccccc2C(CNC2CCCCC2)C1c1ccco1 (centres unmarked) [TRG 2405-17]
First of duplicate
  % Disp. MC-1 10 μM: 36%
Second of duplicate
  % Disp. MC-1 10 μM: 32.8%

## NCCN1Cc2ccccc2C(CNC2CCCCC2)C1c1ncc[nH]1 (centres unmarked) [TRG 2405-18]
First of duplicate
  % Disp. MC-1 10 μM: 35.9%
Second of duplicate
  % Disp. MC-1 10 μM: 34.7%

## COc1ccccc1C1C(CNC2CCCCC2)c2ccccc2CN1CCN (centres unmarked) [TRG 2405-19]
First of duplicate
  % Disp. MC-1 10 μM: 42.2%
Second of duplicate
  % Disp. MC-1 10 μM: 36.2%

## NCCN1Cc2ccccc2C(CNC2CCCCC2)C1c1ccc2ccccc2c1 (centres unmarked) [TRG 2405-20]
First of duplicate
  % Disp. MC-1 10 μM: 59.8%
Second of duplicate
  % Disp. MC-1 10 μM: 53.6%

## NCCN1Cc2ccccc2C(CNC2CCCCC2)C1c1ccccn1 (centres unmarked) [TRG 2405-21]
First of duplicate
  % Disp. MC-1 10 μM: 47.7%
Second of duplicate
  % Disp. MC-1 10 μM: 42.5%

## NCCN1Cc2ccccc2C(CNC2CCCCC2)C1c1ccc2ccccc2n1 (centres unmarked) [TRG 2405-22]
First of duplicate
  % Disp. MC-1 10 μM: 29.7%
Second of duplicate
  % Disp. MC-1 10 μM: 43.4%

## NCCN1Cc2ccccc2C(CNC2CCCCC2)C1c1cccs1 (centres unmarked) [TRG 2405-23]
First of duplicate
  % Disp. MC-1 10 μM: 43%
Second of duplicate
  % Disp. MC-1 10 μM: 47.8%

## NCCN1Cc2ccccc2C(CNC2CCCCC2)C1c1ccc(O)c(O)c1 (centres unmarked) [TRG 2405-25]
First of duplicate
  % Disp. MC-1 10 μM: 21.6%
Second of duplicate
  % Disp. MC-1 10 μM: 31.9%

## NCCN1Cc2ccccc2C(CNC2CCCCC2)C1c1ccc(Cl)c(Cl)c1 (centres unmarked) [TRG 2405-26]
First of duplicate
  % Disp. MC-1 10 μM: 59.6%
Second of duplicate
  % Disp. MC-1 10 μM: 64.6%

## NCCN1Cc2ccccc2C(CNC2CCCCC2)C1c1ccc(F)c(F)c1 (centres unmarked) [TRG 2405-27]
First of duplicate
  % Disp. MC-1 10 μM: 52.1%
Second of duplicate
  % Disp. MC-1 10 μM: 43.8%

## NCCN1Cc2ccccc2C(CNC2CCCCC2)C1c1cc(O)cc(O)c1 (centres unmarked) [TRG 2405-29]
First of duplicate
  % Disp. MC-1 10 μM: 28.5%
Second of duplicate
  % Disp. MC-1 10 μM: 26.2%

## NCCN1Cc2ccccc2C(CNC2CCCCC2)C1c1cc(Cl)cc(Cl)c1 (centres unmarked) [TRG 2405-30]
First of duplicate
  % Disp. MC-1 10 μM: 54.7%
Second of duplicate
  % Disp. MC-1 10 μM: 52.8%

## COc1cc(OC)cc(C2C(CNC3CCCCC3)c3ccccc3CN2CCN)c1 (centres unmarked) [TRG 2405-31]
First of duplicate
  % Disp. MC-1 10 μM: 40.7%
Second of duplicate
  % Disp. MC-1 10 μM: 48.5%

## Cc1cc(C2C(CNC3CCCCC3)c3ccccc3CN2CCN)cc(C)c1O (centres unmarked) [TRG 2405-32]
First of duplicate
  % Disp. MC-1 10 μM: 10.1%
Second of duplicate
  % Disp. MC-1 10 μM: 38.3%

## NCCN1Cc2ccccc2C(CNC2CCCCC2)C1c1cccc(Oc2ccc(Cl)c(Cl)c2)c1 (centres unmarked) [TRG 2405-33]
First of duplicate
  % Disp. MC-1 10 μM: 54.2%
Second of duplicate
  % Disp. MC-1 10 μM: 48.7%

## COc1ccc(Oc2cccc(C3C(CNC4CCCCC4)c4ccccc4CN3CCN)c2)cc1 (centres unmarked) [TRG 2405-34]
First of duplicate
  % Disp. MC-1 10 μM: 55.6%
Second of duplicate
  % Disp. MC-1 10 μM: 56.1%

## NCCN1Cc2ccccc2C(CNC2CCCCC2)C1c1cccc(C(F)(F)F)c1 (centres unmarked) [TRG 2405-35]
First of duplicate
  % Disp. MC-1 10 μM: 54.6%
Second of duplicate
  % Disp. MC-1 10 μM: 55%

## NCCN1Cc2ccccc2C(CNC2CCCCC2)C1c1ccc(F)c(Br)c1 (centres unmarked) [TRG 2405-36]
First of duplicate
  % Disp. MC-1 10 μM: 51.8%
Second of duplicate
  % Disp. MC-1 10 μM: 53.6%

## NCCN1Cc2ccccc2C(CNC2CCCCC2)C1c1cccc(Br)c1 (centres unmarked) [TRG 2405-37]
First of duplicate
  % Disp. MC-1 10 μM: 49.7%
Second of duplicate
  % Disp. MC-1 10 μM: 54.4%

## NCCN1Cc2ccccc2C(CNC2CCCCC2)C1c1cccc(CN)c1 (centres unmarked) [TRG 2405-39]
First of duplicate
  % Disp. MC-1 10 μM: 23.2%
Second of duplicate
  % Disp. MC-1 10 μM: 16.9%

## COc1ccc(C2C(CNC3CCCCC3)c3ccccc3CN2CCN)cc1F (centres unmarked) [TRG 2405-40]
First of duplicate
  % Disp. MC-1 10 μM: 22.4%
Second of duplicate
  % Disp. MC-1 10 μM: 35.5%

## NCCN1Cc2ccccc2C(CNC2CCCCC2)C1c1cccc(F)c1 (centres unmarked) [TRG 2405-41]
First of duplicate
  % Disp. MC-1 10 μM: 19.6%
Second of duplicate
  % Disp. MC-1 10 μM: 19.8%

## NCCN1Cc2ccccc2C(CNC2CCCCC2)C1c1ccoc1 (centres unmarked) [TRG 2405-42]
First of duplicate
  % Disp. MC-1 10 μM: 43.6%
Second of duplicate
  % Disp. MC-1 10 μM: 40.7%

## NCCN1Cc2ccccc2C(CNC2CCCCC2)C1c1cccc(O)c1 (centres unmarked) [TRG 2405-43]
First of duplicate
  % Disp. MC-1 10 μM: 32.3%
Second of duplicate
  % Disp. MC-1 10 μM: 23.1%

## COc1cccc(C2C(CNC3CCCCC3)c3ccccc3CN2CCN)c1 (centres unmarked) [TRG 2405-45]
First of duplicate
  % Disp. MC-1 10 μM: 40.6%
Second of duplicate
  % Disp. MC-1 10 μM: 31.9%

## COc1ccc(C2C(CNC3CCCCC3)c3ccccc3CN2CCN)cc1C (centres unmarked) [TRG 2405-46]
First of duplicate
  % Disp. MC-1 10 μM: 46.8%
Second of duplicate
  % Disp. MC-1 10 μM: 40.3%

## NCCN1Cc2ccccc2C(CNC2CCCCC2)C1c1cccc([N+](=O)[O-])c1 (centres unmarked) [TRG 2405-49]
First of duplicate
  % Disp. MC-1 10 μM: 37.2%
Second of duplicate
  % Disp. MC-1 10 μM: 42.4%

## NCCN1Cc2ccccc2C(CNC2CCCCC2)C1c1cccc(Oc2ccccc2)c1 (centres unmarked) [TRG 2405-50]
First of duplicate
  % Disp. MC-1 10 μM: 61.9%
Second of duplicate
  % Disp. MC-1 10 μM: 50.8%

## NCCN1Cc2ccccc2C(CNC2CCCCC2)C1c1cccnc1 (centres unmarked) [TRG 2405-51]
First of duplicate
  % Disp. MC-1 10 μM: 30.6%
Second of duplicate
  % Disp. MC-1 10 μM: 23.1%

## NCCN1Cc2ccccc2C(CNC2CCCCC2)C1c1cnc2ccccc2c1 (centres unmarked) [TRG 2405-52]
First of duplicate
  % Disp. MC-1 10 μM: 42.4%
Second of duplicate
  % Disp. MC-1 10 μM: 42.3%

## NCCN1Cc2ccccc2C(CNC2CCCCC2)C1c1ccsc1 (centres unmarked) [TRG 2405-53]
First of duplicate
  % Disp. MC-1 10 μM: 43.3%
Second of duplicate
  % Disp. MC-1 10 μM: 43.4%

## CN(C)CCCOc1ccc(C2C(CNC3CCCCC3)c3ccccc3CN2CCN)cc1 (centres unmarked) [TRG 2405-54]
First of duplicate
  % Disp. MC-1 10 μM: 1.3%
Second of duplicate
  % Disp. MC-1 10 μM: 9%

## CN(C)c1ccc(C2C(CNC3CCCCC3)c3ccccc3CN2CCN)cc1 (centres unmarked) [TRG 2405-55]
First of duplicate
  % Disp. MC-1 10 μM: 32.6%
Second of duplicate
  % Disp. MC-1 10 μM: 38.1%

## CSc1ccc(C2C(CNC3CCCCC3)c3ccccc3CN2CCN)cc1 (centres unmarked) [TRG 2405-57]
First of duplicate
  % Disp. MC-1 10 μM: 17.4%
Second of duplicate
  % Disp. MC-1 10 μM: 42.6%

## NCCN1Cc2ccccc2C(CNC2CCCCC2)C1c1ccc(C(F)(F)F)cc1 (centres unmarked) [TRG 2405-58]
First of duplicate
  % Disp. MC-1 10 μM: 56.3%
Second of duplicate
  % Disp. MC-1 10 μM: 46.6%

## CCNc1ccc(C2C(CNC3CCCCC3)c3ccccc3CN2CCN)cc1 (centres unmarked) [TRG 2405-59]
First of duplicate
  % Disp. MC-1 10 μM: 34.3%
Second of duplicate
  % Disp. MC-1 10 μM: 40.1%

## COc1ccc(C2C(CNC3CCCCC3)c3ccccc3CN2CCN)cc1 (centres unmarked) [TRG 2405-60]
First of duplicate
  % Disp. MC-1 10 μM: 41.4%
Second of duplicate
  % Disp. MC-1 10 μM: 42.4%

## NCCN1Cc2ccccc2C(CNC2CCCCC2)C1c1ccc(-c2ccccc2)cc1 (centres unmarked) [TRG 2405-61]
First of duplicate
  % Disp. MC-1 10 μM: 54.7%
Second of duplicate
  % Disp. MC-1 10 μM: 61.9%

## NCCN1Cc2ccccc2C(CNC2CCCCC2)C1c1ccc(Br)cc1 (centres unmarked) [TRG 2405-62]
First of duplicate
  % Disp. MC-1 10 μM: 32.1%
Second of duplicate
  % Disp. MC-1 10 μM: 54.3%

## NCCN1Cc2ccccc2C(CNC2CCCCC2)C1c1ccc(F)cc1 (centres unmarked) [TRG 2405-65]
First of duplicate
  % Disp. MC-1 10 μM: 49.6%
Second of duplicate
  % Disp. MC-1 10 μM: 33.9%

## NCCN1Cc2ccccc2C(CNC2CCCCC2)C1c1ccc(O)cc1 (centres unmarked) [TRG 2405-66]
First of duplicate
  % Disp. MC-1 10 μM: 81.6%
Second of duplicate
  % Disp. MC-1 10 μM: 11.3%

## CC(C)c1ccc(C2C(CNC3CCCCC3)c3ccccc3CN2CCN)cc1 (centres unmarked) [TRG 2405-67]
First of duplicate
  % Disp. MC-1 10 μM: 54%
Second of duplicate
  % Disp. MC-1 10 μM: 51.3%

## COc1ccc(C2C(CNC3CCCCC3)c3ccccc3CN2CCN)c2ccccc12 (centres unmarked) [TRG 2405-68]
First of duplicate
  % Disp. MC-1 10 μM: 55.3%
Second of duplicate
  % Disp. MC-1 10 μM: 52.3%

## Cc1ccc(C2C(CNC3CCCCC3)c3ccccc3CN2CCN)cc1 (centres unmarked) [TRG 2405-69]
First of duplicate
  % Disp. MC-1 10 μM: 49.8%
Second of duplicate
  % Disp. MC-1 10 μM: 49%

## NCCN1Cc2ccccc2C(CNC2CCCCC2)C1c1ccc([N+](=O)[O-])c(O)c1 (centres unmarked) [TRG 2405-70]
First of duplicate
  % Disp. MC-1 10 μM: 19.9%
Second of duplicate
  % Disp. MC-1 10 μM: 46.7%

## NCCN1Cc2ccccc2C(CNC2CCCCC2)C1c1ccc([N+](=O)[O-])cc1 (centres unmarked) [TRG 2405-71]
First of duplicate
  % Disp. MC-1 10 μM: 28.2%
Second of duplicate
  % Disp. MC-1 10 μM: 40%

## NCCN1Cc2ccccc2C(CNC2CCCCC2)C1c1ccc(Oc2ccccc2)cc1 (centres unmarked) [TRG 2405-72]
First of duplicate
  % Disp. MC-1 10 μM: 50.1%
Second of duplicate
  % Disp. MC-1 10 μM: 57.7%

## CCCOc1ccc(C2C(CNC3CCCCC3)c3ccccc3CN2CCN)cc1 (centres unmarked) [TRG 2405-73]
First of duplicate
  % Disp. MC-1 10 μM: 60.1%
Second of duplicate
  % Disp. MC-1 10 μM: 60.5%
